Results as given in patent US12421212B2, “Substituted benzenecarboxamides as IL-17A modulators” (DiCE Alpha, Inc., priority 2019, dated 2025).

Target: T1, IL-17A/A (Homo sapiens, UniProt Q16552)
T1 construct: purchased Genscript Z03228
T1 sequence (Q16552 24-155): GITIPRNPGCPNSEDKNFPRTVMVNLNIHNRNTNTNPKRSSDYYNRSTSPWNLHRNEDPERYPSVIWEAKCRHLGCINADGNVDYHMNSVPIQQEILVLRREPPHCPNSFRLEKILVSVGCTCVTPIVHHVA
Assay: IL-17A/A HEK-Blue Cell Assay
Assay type: cell-based
Conditions: HEK-Blue IL-17A reporter cell line, SEAP readout at A630, 20 hours incubation with IL-17A/A, top concentration 10 uM, 1 uM or 0.3 uM; for IC50: read-out: IL-17A/A inhibition (pIC50) (converted)
Procedure: The HEK-Blue IL-17A reporter cell line (Fisher #NC1408637) was used for cell-based IL-17A/A inhibition assays. Cells were grown and prepared for assays according to the manufacturer's instructions. This cell line consists of HEK 293 cells that were designed to expressed IL-17RA, IL-17RC, and the ActI adapter molecule, the combination of which, when stimulated by IL-17A/A activates a NFκB promoter and drives expression of a recombinant Secreted Alkaline Phosphatase (SEAP) geneprotein. Media from the cells is then added to a development reagent (Quanti-Blue Substrate, Fisher #NC9711613), and read at A630.
Compounds were titrated in DMSO, with a top final compound concentration of 10 uM, 1 uM, or 0.3 uM, and added to the cells immediately before adding IL-17A/A (Genscript #Z03228). The cells, compound, and IL-17A/A were then incubated for 20 hours before media was removed for SEAP analysis. The resulting inhibition curve was then analyzed using Graphpad Prism 7.0, and IC50 values were determined using a 4-parameter nonlinear fit. DMSO was added to a universal final concentration of 0.1% to optimize background.

SMILES	IC50	IL-17A/A inhibition (pIC50)
CCC(=O)NC(C(=O)N1CCN(C(C)C)CC1)[C@@H](C)c1ccc(NC(=O)[C@@H](NC(=O)c2ccnn2CC)[C@H]2CC[C@H](C)CC2)c(F)c1 (single isomer, unassigned) [Compound 368]	10 to 100 nM	
CCC(=O)N[C@@H](C(=O)N1CCN(C)CC1)[C@@H](C)c1ccc(NC(=O)C(NC(=O)c2ccnn2CC)C(CC)c2ccc(F)cc2)c(F)c1 (single isomer, unassigned) [Compound 553]		X2a (compounds were evaluated up to 1 uM and did not inhibit activity by >80%, however they showed some activity at 1 uM (less than 80% and more than 20%))
CCC(=O)N[C@@H](C(=O)N1CCN(C)CC1)[C@@H](C)c1ccc(NC(=O)C(NC(=O)c2ccnn2CC)C(CC)c2ccc(F)cc2)c(F)c1 (single isomer, unassigned) [Compound 556]		X2a (compounds were evaluated up to 1 uM and did not inhibit activity by >80%, however they showed some activity at 1 uM (less than 80% and more than 20%))
CCC(=O)N[C@@H](C(=O)N1CCN(C)CC1)[C@@H](C)c1ccc(NC(=O)C(NC(=O)c2nonc2CC)C(CC)c2ccc(F)cc2)c(F)c1 (single isomer, unassigned) [Compound 559]		X2b (compounds were evaluated up to 1 uM and inhibited activity at 1 uM by less than 20%)
CCC(=O)N[C@@H](C(=O)N1CCN(C)CC1)[C@@H](C)c1ccc(NC(=O)C(NC(=O)c2ccnn2CC)C(CC)c2ccc(Cl)cc2)c(F)c1 (single isomer, unassigned) [Compound 560]		X2b (compounds were evaluated up to 1 uM and inhibited activity at 1 uM by less than 20%)
CCC(=O)N[C@@H](C(=O)N1CCN(C)CC1)[C@@H](C)c1ccc(NC(=O)C(NC(=O)c2ccnn2CC)C(CC)c2ccc(Cl)cc2)c(F)c1 (single isomer, unassigned) [Compound 563]		X2b (compounds were evaluated up to 1 uM and inhibited activity at 1 uM by less than 20%)
CCC(=O)N[C@@H](C(=O)N1CCN(C)CC1)[C@@H](C)c1ccc(NC(=O)C(NC(=O)c2nonc2CC)C(CC)c2ccc(Cl)cc2)c(F)c1 (single isomer, unassigned) [Compound 564]		X2a (compounds were evaluated up to 1 uM and did not inhibit activity by >80%, however they showed some activity at 1 uM (less than 80% and more than 20%))
CCC(=O)N[C@@H](C(=O)N1CCN(C)CC1)[C@@H](C)c1ccc(NC(=O)C(NC(=O)c2nonc2CC)C(CC)c2ccc(Cl)cc2)c(F)c1 (single isomer, unassigned) [Compound 565]	< 10 nM	
CCC(=O)N[C@@H](C(=O)N1CCN(C)CC1)[C@@H](C)c1ccc(NC(=O)C(NC(=O)c2ccnn2CC)C2CCc3cc(F)ccc32)c(F)c1 (single isomer, unassigned) [Compound 568]	< 10 nM	
CCC(=O)N[C@@H](C(=O)N1CCN(C)CC1)[C@@H](C)c1ccc(NC(=O)C(NC(=O)c2nonc2CC)C2CCc3cc(F)ccc32)c(F)c1 (single isomer, unassigned) [Compound 569]	100 to 10000 nM	
CCC(=O)N[C@@H](C(=O)N1CCN(C)CC1)[C@@H](C)c1ccc(NC(=O)C(NC(=O)c2ccnn2CC)C2CCc3cc(F)ccc32)c(F)c1 (single isomer, unassigned) [Compound 571]		X2a (compounds were evaluated up to 1 uM and did not inhibit activity by >80%, however they showed some activity at 1 uM (less than 80% and more than 20%))
CCC(=O)N[C@@H](C(=O)N1CCN(C)CC1)[C@@H](C)c1ccc(NC(=O)C(NC(=O)c2nonc2CC)C(C)C2CCC(C)CC2)c(F)c1 (single isomer, unassigned) [Compound 584]		X2b (compounds were evaluated up to 1 uM and inhibited activity at 1 uM by less than 20%)
CCC(=O)N[C@@H](C(=O)N1CCN(C)CC1)[C@@H](C)c1ccc(NC(=O)C(NC(=O)c2ccnn2CC)C(C)C2CCC(C)CC2)c(F)c1 (single isomer, unassigned) [Compound 585]		X2a (compounds were evaluated up to 1 uM and did not inhibit activity by >80%, however they showed some activity at 1 uM (less than 80% and more than 20%))
CCC(=O)N[C@@H](C(=O)N1CCN(C)CC1)[C@@H](C)c1ccc(NC(=O)C(NC(=O)c2nonc2CC)C(C)C2CCC(F)(F)CC2)c(F)c1 (single isomer, unassigned) [Compound 588]		X3b (compounds were evaluated up to 0.3 uM and inhibited activity at 0.3 uM by less than 20%)
CCC(=O)N[C@@H](C(=O)N1CCN(C)CC1)[C@@H](C)c1ccc(NC(=O)C(NC(=O)c2ccnn2CC)C(C)C2CCC(F)(F)CC2)c(F)c1 (single isomer, unassigned) [Compound 589]		X3b (compounds were evaluated up to 0.3 uM and inhibited activity at 0.3 uM by less than 20%)
CCC(=O)N[C@@H](C(=O)N1CCN(C)CC1)[C@@H](C)c1ccc(NC(=O)C(NC(=O)c2nonc2CC)C(C)C2CCC(F)(F)CC2)c(F)c1 (single isomer, unassigned) [Compound 590]		X3b (compounds were evaluated up to 0.3 uM and inhibited activity at 0.3 uM by less than 20%)
CCC(=O)N[C@@H](C(=O)N1CCN(C)CC1)[C@@H](C)c1ccc(NC(=O)C(NC(=O)c2ccnn2CC)C(C)C2CCC(F)(F)CC2)c(F)c1 (single isomer, unassigned) [Compound 591]		X3b (compounds were evaluated up to 0.3 uM and inhibited activity at 0.3 uM by less than 20%)
CCn1nccc1C(=O)N[C@H](C(=O)Nc1ccc([C@H](C)C(NC(=O)C(C)F)C(=O)N2CCN(C)[C@@H](C)C2)cc1F)[C@H]1CC[C@H](C)CC1 (single isomer, unassigned) [Compound 592]	10 to 100 nM	
CCn1nccc1C(=O)N[C@H](C(=O)Nc1ccc([C@H](C)C(NC(=O)C(F)C2CC2)C(=O)N2CCN(C)[C@H](C)C2)cc1F)[C@H]1CC[C@H](C)CC1 (single isomer, unassigned) [Compound 602]	< 10 nM	

Second part, led by results:

IC50	SMILES	IL-17A/A inhibition (pIC50)
10 to 100 nM	CCC(=O)N[C@@H](C(=O)N1CCN(C)CC1)[C@@H](C)c1ccc(NC(=O)C(NC(=O)c2ccnn2CC)C(C)c2ccc(C)cc2)c(F)c1 (single isomer, unassigned) [Compound 294]	
100 to 10000 nM	CCC(=O)N[C@@H](C(=O)N1CCN(C)CC1)[C@@H](C)c1ccc(NC(=O)C(NC(=O)c2ccnn2CC)C(CC)c2ccc(F)cc2)c(F)c1 (single isomer, unassigned) [Compound 554]	
< 10 nM	CCC(=O)N[C@@H](C(=O)N1CCN(C)CC1)[C@@H](C)c1ccc(NC(=O)C(NC(=O)c2ccnn2CC)C(CC)c2ccc(F)cc2)c(F)c1 (single isomer, unassigned) [Compound 555]	
100 to 10000 nM	CCC(=O)N[C@@H](C(=O)N1CCN(C)CC1)[C@@H](C)c1ccc(NC(=O)C(NC(=O)c2nonc2CC)C(CC)c2ccc(F)cc2)c(F)c1 (single isomer, unassigned) [Compound 557]	
< 10 nM	CCC(=O)N[C@@H](C(=O)N1CCN(C)CC1)[C@@H](C)c1ccc(NC(=O)C(NC(=O)c2nonc2CC)C(CC)c2ccc(F)cc2)c(F)c1 (single isomer, unassigned) [Compound 558]	
10 to 100 nM	CCC(=O)N[C@@H](C(=O)N1CCN(C)CC1)[C@@H](C)c1ccc(NC(=O)C(NC(=O)c2ccnn2CC)C(CC)c2ccc(Cl)cc2)c(F)c1 (single isomer, unassigned) [Compound 562]	
< 10 nM	CCC(=O)N[C@@H](C(=O)N1CCN(C)CC1)[C@@H](C)c1ccc(NC(=O)C(NC(=O)c2nonc2CC)C2CCc3cc(F)ccc32)c(F)c1 (single isomer, unassigned) [Compound 570]	
< 10 nM	CCc1nonc1C(=O)N[C@H](C(=O)Nc1ccc([C@H](C)C(NC(=O)C(C)F)C(=O)N2CCN(C)[C@@H](C)C2)cc1F)[C@H]1CC[C@H](C)CC1 (single isomer, unassigned) [Compound 594]	
10 to 100 nM	CCc1nonc1C(=O)N[C@H](C(=O)Nc1ccc([C@H](C)C(NC(=O)C(C)F)C(=O)N2CCN(C)[C@@H](C)C2)cc1F)[C@H]1CC[C@H](C)CC1 (single isomer, unassigned) [Compound 595]	
10 to 100 nM	CCn1nccc1C(=O)N[C@H](C(=O)Nc1ccc([C@H](C)C(NC(=O)C(C)F)C(=O)N2CCN(C)[C@H](C)C2)cc1F)[C@H]1CC[C@H](C)CC1 (single isomer, unassigned) [Compound 596]	
10 to 100 nM	CCc1nonc1C(=O)N[C@H](C(=O)Nc1ccc([C@H](C)C(NC(=O)C(C)F)C(=O)N2CCN(C)[C@H](C)C2)cc1F)[C@H]1CC[C@H](C)CC1 (single isomer, unassigned) [Compound 598]	
< 10 nM	CCc1nonc1C(=O)N[C@H](C(=O)Nc1ccc([C@H](C)C(NC(=O)C(C)F)C(=O)N2CCN(C)[C@H](C)C2)cc1F)[C@H]1CC[C@H](C)CC1 (single isomer, unassigned) [Compound 599]	
< 10 nM	CCc1nonc1C(=O)N[C@H](C(=O)Nc1ccc([C@H](C)C(NC(=O)C(F)C2CC2)C(=O)N2CCN(C)[C@H](C)C2)cc1F)[C@H]1CC[C@H](C)CC1 (single isomer, unassigned) [Compound 600]	
